{"source": "paper PMC6450621", "about": "“Changes of drug pharmacokinetics mediated by downregulation of kidney organic cation transporters Mate1 and Oct2 in a rat model of hyperuricemia” (PLoS ONE, 2019)", "key": {"[1]": {"target": "T1, human MATE1 (Homo sapiens, UniProt Q96FL8)", "T1 construct": "expressed in transfected cells; host or cells: HEK293 (HEK293/hMATE1; gift from Dr. Inoue, Tokyo University of Pharmacy and Life Science)", "T1 sequence (Q96FL8 1-570)": "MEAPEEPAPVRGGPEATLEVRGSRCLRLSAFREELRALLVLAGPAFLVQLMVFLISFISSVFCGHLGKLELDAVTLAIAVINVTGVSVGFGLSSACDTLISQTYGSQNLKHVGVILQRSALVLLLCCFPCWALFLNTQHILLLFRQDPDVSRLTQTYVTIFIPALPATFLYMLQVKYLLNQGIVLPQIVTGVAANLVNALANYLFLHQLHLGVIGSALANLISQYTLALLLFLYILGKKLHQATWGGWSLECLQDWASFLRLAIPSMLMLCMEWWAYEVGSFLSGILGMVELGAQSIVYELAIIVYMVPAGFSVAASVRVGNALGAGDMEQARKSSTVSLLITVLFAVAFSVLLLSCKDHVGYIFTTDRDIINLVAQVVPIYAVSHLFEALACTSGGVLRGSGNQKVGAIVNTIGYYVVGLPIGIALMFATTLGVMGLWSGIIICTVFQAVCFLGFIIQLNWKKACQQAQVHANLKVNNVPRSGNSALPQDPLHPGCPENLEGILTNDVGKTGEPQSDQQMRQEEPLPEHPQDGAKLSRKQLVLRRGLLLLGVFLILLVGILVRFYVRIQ", "experiment": "Uptake of [3H]MPP+ by MATE1-expressing HEK293 cells", "type": "cell-based", "settings": "for MATE1-mediated uptake of [3H]MPP+, percentage of control: HEK293/hMATE1 minus mock, 0.25 nM [3H]MPP+, 0.5 min, 37°C; for MATE1-mediated uptake of MPP+, % of Control: after subtraction of uptake by mock cells; for MATE1-mediated uptake of MPP+, % of Control / C/M ratio of MPP+ uptake, MATE1-expressing cells: replicates and mean", "procedure": "HEK293 cells transfected with human MATE1 (HEK293/hMATE1) and vector alone (mock) were gifts from Dr. Inoue (Tokyo University of Pharmacy and Life Science). […] HEK293/mock and HEK293/hMATE1 cells were plated at a density of 3.0 × 10^5 cells/well on 24-well plates and cultured for two days before an uptake assay. […] Radioactivity was measured with a liquid scintillation counter (Hitachi Aloka Medical, Tokyo, Japan). Part of the lysate was used for the determination of total protein amount with Bio-Rad protein assay dye reagent. Uptake of MPP^+ was expressed as a cell-to-medium ratio (μL/mg protein) obtained by dividing the uptake amount by the concentration of substrate in the TM. Percentages of control were calculated as the ratio of MATE1-mediated uptake of MPP^+ that obtained after subtraction of the uptake of MPP^+ by mock cells in compound treated groups to that in control group."}, "[2]": {"experiment": "Plasma concentration of oxonic acid and adenine in hyperuricemic rats", "type": "in vivo, rat", "settings": "hyperuricemic rats given oral oxonic acid […] and adenine 0.1 g/kg; detection limit 100 μM for oxonic acid"}, "[3]": {"system": "Mock cells", "experiment": "Uptake of MPP+ by mock cells (background for MATE1-expressing cells)", "type": "cell-based", "settings": "replicates and mean", "procedure": "Dunnett's test was used for uptake study to compare the control group to groups treated with drugs.\nPercentages of control were calculated as the ratio of MATE1-mediated uptake of MPP^+ that obtained after subtraction of the uptake of MPP^+ by mock cells in compound treated groups to that in control group."}}, "note": "Several values for one entry are separate records, joined by “and”; a condition that tells them apart may be missing. Identical values can stand only once.", "data": [{"smiles": "O=C(O)c1nc(=O)[nH]c(=O)[nH]1", "note": "[oxonic acid]", "values": [{"measurement": "MATE1-mediated uptake of [3H]MPP+, percentage of control", "setting": "[1]; 50 μM test compound", "result": 101.5, "unit": "%"}, {"measurement": "MATE1-mediated uptake of [3H]MPP+, percentage of control", "setting": "[1]; 500 μM test compound", "result": 98.2, "unit": "%"}, {"measurement": "Inhibitory effect on MATE1-mediated MPP+ uptake", "setting": "[1]; 50 and 500 μM of each", "result": "No inhibitory effects"}, {"measurement": "MATE1-mediated uptake of MPP+, % of Control", "setting": "[1]; Oxonic acid 50 µM", "result": "93.3 % of Control and 90.1 % of Control and 121.0 % of Control"}, {"measurement": "MATE1-mediated uptake of MPP+, % of Control", "setting": "[1]; Oxonic acid 50 µM, mean", "result": "101.5 % of Control"}, {"measurement": "C/M ratio of MPP+ uptake, MATE1-expressing cells", "setting": "[1]; Oxonic acid 50 µM", "result": "177 µL/mg protein and 232 µL/mg protein and 183 µL/mg protein"}, {"measurement": "C/M ratio of MPP+ uptake, MATE1-expressing cells", "setting": "[1]; Oxonic acid 50 µM, mean", "result": 197, "unit": "µL/mg protein"}, {"measurement": "MATE1-mediated uptake of MPP+, % of Control", "setting": "[1]; Oxonic acid 500 µM", "result": "118.1 % of Control and 83.7 % of Control and 92.8 % of Control"}, {"measurement": "MATE1-mediated uptake of MPP+, % of Control", "setting": "[1]; Oxonic acid 500 µM, mean", "result": "98.2 % of Control"}, {"measurement": "C/M ratio of MPP+ uptake, MATE1-expressing cells", "setting": "[1]; Oxonic acid 500 µM", "result": "173 µL/mg protein and 190 µL/mg protein and 235 µL/mg protein"}, {"measurement": "C/M ratio of MPP+ uptake, MATE1-expressing cells", "setting": "[1]; Oxonic acid 500 µM, mean", "result": 199, "unit": "µL/mg protein"}, {"measurement": "Plasma concentration", "setting": "[2]", "result": "lower than 100 μM"}, {"measurement": "C/M ratio of MPP+ uptake, Mock cells", "setting": "[3]; Oxonic acid 50 µM", "result": "18.7 µL/mg protein and 13.1 µL/mg protein and 12.3 µL/mg protein"}, {"measurement": "C/M ratio of MPP+ uptake, Mock cells", "setting": "[3]; Oxonic acid 50 µM, mean", "result": 14.7, "unit": "µL/mg protein"}, {"measurement": "C/M ratio of MPP+ uptake, Mock cells", "setting": "[3]; Oxonic acid 500 µM", "result": "19.2 µL/mg protein and 28.0 µL/mg protein and 20.9 µL/mg protein"}, {"measurement": "C/M ratio of MPP+ uptake, Mock cells", "setting": "[3]; Oxonic acid 500 µM, mean", "result": 22.7, "unit": "µL/mg protein"}]}]}
